Measurements as given in publication PMC3199744, “Preformulation and stability in biological fluids of the retrocyclin RC-101, a potential anti-HIV topical microbicide” (AIDS Research and Therapy, 2011).

How the values were obtained:
[1] = Stability in fresh normal human vaginal fluid (HVF), detection by LC-MS/MS; details: for time RC-101 detected in HVF: LC-MS/MS; for detection of RC-101 by LC-MS/MS: nanoLC-SRM MS, qualitative
Description: Inclusion criteria included ages between 18 and 45 years and agreeing to be abstinent from sexual activity for 48 hours prior to fluid collection. […] After signing informed consent and confirming eligibility, subjects completed a questionnaire and were then instructed on the use of the Instead Softcup® (Instead Inc., La Jolla, CA). Instead Softcup® is a FDA approved device to hold menstrual fluid during the menstrual period in replacement of a tampon or pad. Subjects inserted the cup and waited for 30 min. After this time period, the physician removed the cup, and placed it into a 50 mL conical centrifuge tube. Vaginal fluid collected from healthy volunteer women was stored at 4°C until used, and it was used within 4 h after collection.
The polymeric film solution was prepared as previously described by adding Milli Q water, PVA, and hydroxypropyl methyl cellulose (HPMC). The solution was then heated at 95°C for 20 minutes for complete dissolution of the polymers. […] The plate was placed into a vacuum oven at 30 ± 2°C for 20 ± 4 h. All dried films were removed from the plates and stored at room temperature in PET/Aluminum foil pouches (Amcor Flexibles Healthcare Inc, Mundelein, IL) until further analysis. […] For analytical purposes, films were dissolved in 1 mL of Milli Q water before addition to HVF.
The HVF from the Instead Softcup® was removed by centrifugation of the conical tube for 10 min at 5,000 rpm. […] HVF was then removed from the cup and the pH of each HVF sample was measured with Fisher Alkacid pH filter strips (Fisher Scientific). All samples collected on a specific day were pooled to be used for the research studies. If the pH of the individual samples was higher than 5, the sample was not included in the pool but it was stored at -80°C for separate analysis. If the sample contained blood, it was immediately discarded. Samples were prepared as described in Table 1. […] Because of its high viscosity, HVF was measured by weight and not by volume. […] At each time point, the samples were centrifuged at 10,000 rpm for 10 min to separate the supernatant from the epithelial cells as described in the cell processing section. Both parts (supernatant and cells) were stored at -80 ± C until analyzed by LC-MS/MS. To evaluate the influence of freezing the fluid prior to the analysis, the last pool of HVF was divided into two samples: one used fresh (at the time of collection), and the other one stored at -80°C for a 3-month period. […] HVF samples collected with a high pH value indicative of BV were stored at -80°C as previously mentioned. After confirmation of BV on those fluid samples by Gram stain score, the fluid samples (HVF BV^+) were thawed, pooled, and processed as described in Table 1.
(§1) At each time point, the sample was removed from the incubation chamber and centrifuged for 10 min at 10,000 rpm, at 4 ± C to separate the supernatant from cell pellet. Supernatant (100 μL) was added to microcentrifuge filters Ultracel YM-10 Microcon MWCO 10,000 (Millipore Corporation, Bedford, MA), which were pre-washed with Milli Q water to eliminate any trace of propylene glycol from the filters. Samples were centrifuged twice for 15 min at 8,500 rpm, at 4 ± C. The filtrate was collected and frozen at -80 ± C until further analysis. A solution of 3 M urea was added to the cell pellet (1:1 w/w) obtained from the first centrifugation, to lyse the cells. This mixture was vortexed three times for 30 sec, and then centrifuged for 10 min at 10,000 rpm, at 4 ± C. The supernatant obtained from the cell lysate was then added to microcentrifuge filters Ultracel YM-10 Microcon MWCO 10,000 pre-washed with Milli Q water. Samples were centrifuged twice for 15 min at 8,500 rpm, at 4 ± C. The filtrate was collected and frozen at -80 ± C until analysis.

[2] = RC-101 solution / film control in water, detection by LC-MS/MS; type: physicochemical; details: 1:1 with water, 37°C, nanoLC-SRM MS, qualitative
Description: RC-101 100 μg/mL solutions were prepared by dissolving RC-101 in Milli Q water. RC-101 and placebo films were prepared by precasting a polymeric film solution into an 8-well-plate. The polymeric film solution was prepared as previously described by adding Milli Q water, PVA, and hydroxypropyl methyl cellulose (HPMC). The solution was then heated at 95°C for 20 minutes for complete dissolution of the polymers. After cooling, glycerin and RC-101 were added. Film solution (2.4 g) containing RC-101 was poured into each well of the 8-well plate. The plate was placed into a vacuum oven at 30 ± 2°C for 20 ± 4 h. All dried films were removed from the plates and stored at room temperature in PET/Aluminum foil pouches (Amcor Flexibles Healthcare Inc, Mundelein, IL) until further analysis. Placebo films were prepared in the same way without the addition of RC-101. […] For analytical purposes, films were dissolved in 1 mL of Milli Q water before addition to HVF.
The HVF from the Instead Softcup® was removed by centrifugation of the conical tube for 10 min at 5,000 rpm. […] HVF was then removed from the cup and the pH of each HVF sample was measured with Fisher Alkacid pH filter strips (Fisher Scientific). All samples collected on a specific day were pooled to be used for the research studies. If the pH of the individual samples was higher than 5, the sample was not included in the pool but it was stored at -80°C for separate analysis. If the sample contained blood, it was immediately discarded. Samples were prepared as described in Table 1. […] Because of its high viscosity, HVF was measured by weight and not by volume. All solutions were prepared fresh and incubated with HVF (or water) at 37°C for specific periods of time (0, 2, 6, 12, 24, 48, and 72 h), unless specified otherwise. At each time point, the samples were centrifuged at 10,000 rpm for 10 min to separate the supernatant from the epithelial cells as described in the cell processing section. Both parts (supernatant and cells) were stored at -80 ± C until analyzed by LC-MS/MS. To evaluate the influence of freezing the fluid prior to the analysis, the last pool of HVF was divided into two samples: one used fresh (at the time of collection), and the other one stored at -80°C for a 3-month period. After that time period, HVF was thawed and processed for blank and RC-101 solution only, as described in Table 1. HVF samples collected with a high pH value indicative of BV were stored at -80°C as previously mentioned. After confirmation of BV on those fluid samples by Gram stain score, the fluid samples (HVF BV^+) were thawed, pooled, and processed as described in Table 1.
as §1

[3] = test system: HIV-1; details: RC-101 at pH 7, data not shown

In the case of “GICRCICGKGICRCICGR (bicyclic or more) [RC-101]”, the “time RC-101 detected in HVF” value ([1]; another (one) pool of normal HVF, 37°C) is reported as “up to 72 h”, the “detection of RC-101 by LC-MS/MS” value ([1]; fresh pooled normal HVF 100 mg + 100 μL (100 μg/mL), 1:1, 37°C, 0 h) is reported as “+” and the “detection of RC-101 by LC-MS/MS” value ([1]; fresh pooled normal HVF 1:1, 37°C, 2 h) is reported as “+”. The “detection of RC-101 by LC-MS/MS” value ([1]; fresh pooled normal HVF 1:1, 37°C, 6 h) was “+”, the “detection of RC-101 by LC-MS/MS” value ([1]; fresh pooled normal HVF 1:1, 37°C, 12 h) was “+” and the “detection of RC-101 by LC-MS/MS” value ([1]; fresh pooled normal HVF 1:1, 37°C, 24 h) was “+”. The “detection of RC-101 by LC-MS/MS” value ([1]; fresh pooled normal HVF 1:1, 37°C, 48 h) was “+”, the “detection of RC-101 by LC-MS/MS” value ([1]; fresh pooled normal HVF 1:1, 37°C, 72 h, only one pool analyzed) was “+” and the “time RC-101 detected after exposure to HVF” value ([1]; normal HVF, fresh, undiluted, pooled, 1:1 with RC-101 100 μg/mL, 37°C, LC-MS/MS (SRM), not quantitative, overall of 3 pools) was “at least 48 h”. For the same sequence, the “time RC-101 detected in HVF” value ([1]; two pools of normal HVF, 37°C) was 48 h, the “detection of RC-101 by LC-MS/MS” value ([2]; 0 h) was “+” and the “detection of RC-101 by LC-MS/MS” value ([2]; 2 h) was “+”. The “detection of RC-101 by LC-MS/MS” value ([2]; 6 h) was “+”, the “detection of RC-101 by LC-MS/MS” value ([2]; 12 h) was “+” and the “detection of RC-101 by LC-MS/MS” value ([2]; 24 h) was “+”. The “detection of RC-101 by LC-MS/MS” value ([2]; 48 h) was “+”, the “detection of RC-101 by LC-MS/MS” value ([2]; 72 h) was “+” and the “effect of the folding change at pH 7 on bioactivity against HIV-1” value [3] was “did not affect bioactivity”.
